Measured values from US8829003B2, “Compounds for treating proliferative disorders” (Changzhou Le Sun Pharmaceuticals Limited, priority 2010, dated 2014).

Columns and labels:
cancer cells = test: MTT proliferation assay; type: cell-based; conditions: GI50 values only in FIG. 4
Source text: C.1. MTT Proliferation Assay.
The compounds from the examples above were subjected to a standard cellular proliferation assay using the method described previously in S. Wang et al. J Med Chem. 2004, 47, 1662-1675. The data analysis used program Deltasoft 3™ and Microsoft Excel to determine GI50 values (concentration of test compound which inhibits cell growth by 50%).

[1] = tested on: HCT-116 human colon cancer cells; test: Cell-cycle effects, DNA content by flow cytometry; type: cell-based; conditions: HCT-116 cells, 0.62 μM, 48 hrs
Procedure: HCT-116 human colon cancer cells were treated with DMSO and A.12 at GI50 and […] respectively for a period of 48 hrs. The cells were analysed for their DNA content by flow cytometry.
This further indicates the efficacy of the compounds of the invention.

[2] = Mouse pharmacokinetics, IV and oral dosing; conditions: mice
Procedure: For PK measurements male adult CD1 mice weighing 25-30 g (Charles River) are split into weight matched groups of 3 per group. IV dosed mice were restrained in individual restraining tubes, the tail was warmed in warm water to vasodilate the tail vein, and the IV bolus was then administered via the tail vein. Orally dosed mice were held at the scruff of the neck and dosed via a metal gavage directly into the stomach. Immediately after dosing mice are returned to their cage, plastic box cage with sawdust bedding, and food and water available. Blood samples were collected from the mouse under anaesthesia by cardiac puncture using a 1 mL syringe and 25 gauge needle at time zero and at intervals up to 8 h. Harvested blood was centrifuged at 7000×G for 2 minutes, and the plasma aspirated and frozen at 20° C. until analysis. Quantitative compound level analysis was carried out using LC-MS/MS methods. Pharmacokinetic data derived using PK Solutions 2.0, non-compartmental analysis. Oral bioavailability (% F) was calculated by taking the ratio of dose-normalised AUC values from oral versus parenteral dosing.

In the case of `CCOC(=O)CNc1cc(CS(=O)(=O)/C=C/c2c(OC)cc(OC)cc2OC)cnc1OC` [A.13, (E)-ethyl 2-(2-methoxy-5-((2,4,6-trimethoxystyrylsulfonyl)methyl)pyridin-3-ylamino)acetate], the “inhibition of cell growth” value (cancer cells) is reported as “effectively inhibit cell growth”.
For `COc1cc(OC)c(/C=C/S(=O)(=O)Cc2cnc(OC)c(NS(C)(=O)=O)c2)c(OC)c1` [A.12, (E)-N-(2-methoxy-5-((2,4,6-trimethoxystyrylsulfonyl)methyl)pyridin-3-yl)methanesulfonamide], the “inhibition of cell growth” value (cancer cells) was “effectively inhibit cell growth”, the “apoptosis (sub-G1 cells)” value [1] was “increased sub-G1 cells” and the “effect on cell cycle progression” value [1] was “block of their cell cycle progression in G2/M phase”. The “pharmacokinetic properties compared with ON01910.Na” value ([2]; IV and PO) was “significantly improved pharmacokinetic properties” and the “oral bioavailability (F)” value ([2]; oral, 10 mg/kg) was 56%.
For `COc1cc(OC)c(/C=C/S(=O)(=O)Cc2cnc(OC)c(N)c2)c(OC)c1` [A.10, (E)-2-methoxy-5-((2,4,6-trimethoxystyrylsulfonyl)methyl)pyridin-3-amine], the “inhibition of cell growth” value (cancer cells) was “effectively inhibit cell growth”.
For `COc1cc(OC)c(/C=C/S(=O)(=O)Cc2ccc(OC)c(N3CCCCC3)n2)c(OC)c1` [A.29, (E)-3-Methoxy-2-(piperidin-9-yl)-6-((2,4,6-trimethoxystyrylsulfonyl)methyl)pyridine], the “inhibition of cell growth” value (cancer cells) was “effectively inhibit cell growth”.
In the case of `COc1cccc(OC)c1/C=C/S(=O)(=O)Cc1cnc(OC)c([N+](=O)[O-])c1` [A.17, (E)-5-((2,6-Dimethoxystyrylsulfonyl)methyl)-2-methoxy-3-nitropyridine], the “inhibition of cell growth” value (cancer cells) is reported as “effectively inhibit cell growth”.
